Results on two compounds are retold here after patent US20120034193A1, “TREATMENT OF NEUROTROPHIC FACTOR MEDIATED DISORDERS” (priority 2009, published 2012).

One assay relates to Acetyl CoA synthetase. The assay is described as follows: Enzyme activity assay. The class given is biochemical, Yeast. As to conditions: sarsasapogenin 100 μM. How it is done:
The enzyme activity modulation was investigated using the following method: Sarsasapogenin was incubated with each enzyme plus a specific substrate for each enzyme. After the incubation period the reaction was stopped and the reduction of the specific substrate or the increase in a specific product in the absence and presence of sarsasapogenin was measured and the percent inhibition of the reaction in the presence of sarsasapogenin was calculated. The amount of enzyme used, the incubation conditions, the substrate used and the method of quantification varied depending on each specific assay.

For a further assay, the system named is pmn mice. The assay can be described thus: Progressive motor neuropathy (pmn) mouse model. In kind it is in vivo. How it is done: Affected homozygous +/+ pmn (“pmn mice”) mice were obtained from a breeding colony of extra toe locus(Xt)+/+pmn double heterozygous mice maintained at Neurofit (Illkirch, France). The pmn mice were dosed by oral gavage every day, starting 10 days after birth, just after the initial symptoms of the disease manifest. Sarsasapogenin (0.03, 0.3 and 3 μg/kg/day) was administered to pmn mice as a suspension in oil (10 ml/kg). Electromyographic (EMG) recordings were performed using a standard Neuromatic 2000M electromyograph apparatus in accordance with the guidelines of the American Association of Electrodiagnostic Medicine. Standard behavioural tests (grid, rotarod and hanging tests) performed weekly from day 8 assessed the motor performances of the pmn mice.
The effect of sarsasapogenin on motor function was assessed by recording the amplitude of gastrocnemius evoked motor response (CMAP, an indirect measurement of the number of functional motor neurones).

The target of a further assay is Chemokine CCR4 (Homo sapiens, UniProt P51679). The assay is described as follows: Binding assay. The settings on record: smilagenin 1 μM. In short, it runs like this: (§1)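 Steps: incubate receptor-expressing homogenate with known-concentration radioligand and 1 μM compound; remove unbound radioligand; quantify specific binding; calculate percent inhibition versus the compound-free condition.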

The target in the next assay is T1, Vasopressin V2 (Homo sapiens, UniProt P30518).
T1 construct: host or cells: tissue or cell homogenate, not specified
The assay is described as follows: Binding assay. The settings on record: smilagenin 1 μM. In short, it runs like this:
as §1

A further assay addresses Melatonin MT1 (Homo sapiens, UniProt P48039). The assay can be described thus: Binding assay. As to conditions: smilagenin 1 μM. In short, it runs like this: as §1
The target of assay [1] is Corticotropin Releasing Factor (CRF1) (Homo sapiens, UniProt P34998). The assay is described as follows: Binding assay. The settings on record: smilagenin 1 μM. In short, it runs like this:
as §1

The target of the next assay is Tachykinin NK2 (Homo sapiens, UniProt P21452). The assay can be described thus: Binding assay. The settings on record: smilagenin 1 μM. In short, it runs like this: as §1
Assay [2] concerns the target T2, Transporter, 5-hydroxytryptamine (SERT) (Homo sapiens, UniProt P31645).
T2 construct: host or cells: tissue or cell homogenate, not specified
The assay can be described thus: Binding assay. The settings on record: smilagenin 1 μM. The essentials:
as §1

A further assay addresses Cannabinoid CB1 (Homo sapiens, UniProt P21554). The assay is described as follows: Binding assay. The settings on record: smilagenin 1 μM. The essentials: as §1
The target of the next assay is Opiate κ (OP2, KOP) (Homo sapiens, UniProt P41145). The assay can be described thus: Binding assay. As to conditions: smilagenin 1 μM. The essentials:
as §1

In the next assay the target is Somatostatin sstl (Homo sapiens, UniProt P30872). The assay is described as follows: Binding assay. The settings on record: smilagenin 1 μM. The essentials:
as §1

A further assay has as its target Somatostatin sst3 (Homo sapiens, UniProt P32745). The assay is described as follows: Binding assay. As to conditions: smilagenin 1 μM. In short, it runs like this: as §1
In assay [3] the target is 5-Hydroxytryptamine, 5-HT3 (Homo sapiens, UniProt P46098). The assay is described as follows: Binding assay. The settings on record: smilagenin 1 μM. The essentials: as §1
For a further assay, the system named is Phorbol Ester. The assay is described as follows: Binding assay. Details: species or system Mouse. The settings on record: smilagenin 1 μM. How it is done: (§2) The receptor binding was investigated using the following method: Sarsasapogenin was incubated with tissue or cell homogenate that expressed the receptor of interest and a known concentration a radiolabelled compound with affinity for the receptor of interest. After the incubation period the non-bound radiolabelled compound was removed and the amount of specific binding was quantified. The amount of specific binding in the presence and absence of sarsasapogenin were compared and the percent inhibition of the binding of the radiolabelled compound by sarsasapogenin was calculated. The source of the receptor, the incubation conditions, the radiolabelled compound used varied depending on each specific assay.
(§3) Using the same methods as described above, the binding of smilagenin (1 μM) to the receptors listed in Table 2 below, and the effect of smilagenin on the activity of the enzymes listed in Table 2 below, were investigated.

The test system of assay [4] is Transforming Growth Factor-β (TGF-β). The assay is described as follows: Binding assay. The arrangement: species or system Mouse. As to conditions: smilagenin 1 μM. How it is done: as §2, §3
For assay [5], the system named is Platelet-Derived Growth Factor (PDGF). The assay can be described thus: Binding assay. The arrangement: species or system Mouse. The settings on record: smilagenin 1 μM. How it is done:
as §2, §3

The subject of a further assay is GDNF. The assay is described as follows: GDNF in culture medium of rat dopaminergic neurones exposed to MPP+. In kind it is cell-based. The settings on record: 10 μM from day 6, MPP+ 2 μM day 8 for 48 h; MPP+ alone 2.7 ± 0.5. How it is done:
Rat dopaminergic neurones were prepared using a slightly modified previously described method (Brouard et al., Journal of Neuroscience, 1992, 12, pp. 1409-1415). On day 6 the culture medium was replaced with fresh medium or fresh medium containing smilagenin (10 μM) or vehicle (DMSO, 0.25%). On day 8, MPP^+ (2 μM) or vehicle (saline) was added and 48 h later dopaminergic neurones were stained and the concentration of GDNF in the culture medium, neuronal damage and neurite outgrowth were assessed.

T2 sequence (P31645 whole entry): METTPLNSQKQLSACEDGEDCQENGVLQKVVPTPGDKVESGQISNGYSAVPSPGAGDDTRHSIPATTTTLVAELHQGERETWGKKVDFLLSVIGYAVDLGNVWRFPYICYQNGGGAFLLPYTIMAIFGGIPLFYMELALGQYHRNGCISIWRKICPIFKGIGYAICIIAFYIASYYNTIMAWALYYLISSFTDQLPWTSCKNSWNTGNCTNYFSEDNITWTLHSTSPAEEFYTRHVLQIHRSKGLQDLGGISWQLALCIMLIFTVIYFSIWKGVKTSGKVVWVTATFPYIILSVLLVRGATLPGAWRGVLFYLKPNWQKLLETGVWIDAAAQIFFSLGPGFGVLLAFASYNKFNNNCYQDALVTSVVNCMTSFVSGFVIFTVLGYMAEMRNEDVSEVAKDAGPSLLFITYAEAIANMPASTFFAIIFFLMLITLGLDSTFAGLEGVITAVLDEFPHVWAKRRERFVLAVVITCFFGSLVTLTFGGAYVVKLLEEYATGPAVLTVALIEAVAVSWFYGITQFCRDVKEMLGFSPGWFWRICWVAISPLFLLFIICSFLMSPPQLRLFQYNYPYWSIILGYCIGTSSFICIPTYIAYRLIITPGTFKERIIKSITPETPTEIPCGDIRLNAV
5-Hydroxytryptamine, 5-HT3, sequence (P46098 24-478): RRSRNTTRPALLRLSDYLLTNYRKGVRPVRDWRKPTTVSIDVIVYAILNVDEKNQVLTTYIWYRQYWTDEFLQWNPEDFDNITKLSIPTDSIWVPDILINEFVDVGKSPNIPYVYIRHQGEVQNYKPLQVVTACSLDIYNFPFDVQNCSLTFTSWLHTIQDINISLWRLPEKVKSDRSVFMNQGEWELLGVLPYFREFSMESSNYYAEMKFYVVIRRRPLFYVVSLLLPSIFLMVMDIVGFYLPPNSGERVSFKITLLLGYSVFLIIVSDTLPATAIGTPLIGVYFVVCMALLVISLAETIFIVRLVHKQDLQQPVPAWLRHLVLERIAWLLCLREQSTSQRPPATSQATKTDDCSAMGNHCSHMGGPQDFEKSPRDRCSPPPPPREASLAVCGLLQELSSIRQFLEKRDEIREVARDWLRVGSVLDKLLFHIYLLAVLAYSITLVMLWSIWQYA
Somatostatin sstl, sequence (P30872 whole entry): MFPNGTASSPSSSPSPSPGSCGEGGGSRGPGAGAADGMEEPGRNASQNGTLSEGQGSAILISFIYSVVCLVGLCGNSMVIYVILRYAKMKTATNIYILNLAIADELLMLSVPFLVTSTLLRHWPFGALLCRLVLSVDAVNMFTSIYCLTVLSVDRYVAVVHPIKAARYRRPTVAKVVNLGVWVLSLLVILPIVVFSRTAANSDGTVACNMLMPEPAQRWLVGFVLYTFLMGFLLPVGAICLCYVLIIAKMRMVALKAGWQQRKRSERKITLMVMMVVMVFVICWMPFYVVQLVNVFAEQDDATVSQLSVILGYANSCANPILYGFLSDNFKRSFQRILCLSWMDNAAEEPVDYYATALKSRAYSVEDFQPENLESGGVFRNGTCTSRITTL
Corticotropin Releasing Factor (CRF1), sequence (P34998 24-415): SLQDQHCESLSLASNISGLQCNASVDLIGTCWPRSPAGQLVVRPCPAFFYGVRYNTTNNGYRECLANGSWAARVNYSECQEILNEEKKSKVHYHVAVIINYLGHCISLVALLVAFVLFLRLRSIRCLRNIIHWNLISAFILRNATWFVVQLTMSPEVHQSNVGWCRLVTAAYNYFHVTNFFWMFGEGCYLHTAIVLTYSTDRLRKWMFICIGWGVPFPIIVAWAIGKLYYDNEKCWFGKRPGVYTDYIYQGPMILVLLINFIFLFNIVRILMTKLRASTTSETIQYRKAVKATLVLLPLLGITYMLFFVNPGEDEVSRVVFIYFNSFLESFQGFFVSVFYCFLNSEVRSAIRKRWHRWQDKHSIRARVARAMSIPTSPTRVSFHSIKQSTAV
Tachykinin NK2, sequence (P21452 whole entry): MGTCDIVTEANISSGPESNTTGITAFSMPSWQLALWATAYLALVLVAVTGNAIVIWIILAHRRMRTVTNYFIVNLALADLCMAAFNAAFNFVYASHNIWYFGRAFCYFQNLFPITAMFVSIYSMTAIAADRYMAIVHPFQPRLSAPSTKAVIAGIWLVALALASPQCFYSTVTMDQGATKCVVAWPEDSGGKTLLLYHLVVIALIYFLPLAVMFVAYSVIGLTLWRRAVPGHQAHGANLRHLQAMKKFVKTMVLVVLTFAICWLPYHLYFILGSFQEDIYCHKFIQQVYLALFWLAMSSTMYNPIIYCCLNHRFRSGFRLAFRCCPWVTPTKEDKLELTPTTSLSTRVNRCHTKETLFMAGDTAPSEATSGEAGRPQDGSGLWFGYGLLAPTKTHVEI
Melatonin MT1, sequence (P48039 whole entry): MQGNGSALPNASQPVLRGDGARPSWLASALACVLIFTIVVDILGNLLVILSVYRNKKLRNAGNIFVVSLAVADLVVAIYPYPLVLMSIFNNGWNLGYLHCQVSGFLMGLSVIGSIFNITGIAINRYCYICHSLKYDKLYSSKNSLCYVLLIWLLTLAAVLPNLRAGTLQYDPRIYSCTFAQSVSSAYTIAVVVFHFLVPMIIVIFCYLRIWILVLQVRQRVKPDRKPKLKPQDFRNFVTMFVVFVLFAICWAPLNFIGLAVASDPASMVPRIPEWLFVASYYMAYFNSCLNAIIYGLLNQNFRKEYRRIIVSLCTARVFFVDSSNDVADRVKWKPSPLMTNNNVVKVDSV
Somatostatin sst3, sequence (P32745 whole entry): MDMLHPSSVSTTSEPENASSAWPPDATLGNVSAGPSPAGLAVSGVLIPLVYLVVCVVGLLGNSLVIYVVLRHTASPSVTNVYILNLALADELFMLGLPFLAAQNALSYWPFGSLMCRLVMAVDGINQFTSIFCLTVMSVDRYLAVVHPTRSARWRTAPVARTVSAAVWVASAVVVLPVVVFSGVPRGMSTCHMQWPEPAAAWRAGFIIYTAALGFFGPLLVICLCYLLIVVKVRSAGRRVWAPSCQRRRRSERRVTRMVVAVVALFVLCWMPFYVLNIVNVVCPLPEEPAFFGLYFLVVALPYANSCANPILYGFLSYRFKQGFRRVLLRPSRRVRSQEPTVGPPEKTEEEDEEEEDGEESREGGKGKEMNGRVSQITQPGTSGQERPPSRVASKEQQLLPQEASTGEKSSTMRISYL
T1 sequence (P30518 whole entry): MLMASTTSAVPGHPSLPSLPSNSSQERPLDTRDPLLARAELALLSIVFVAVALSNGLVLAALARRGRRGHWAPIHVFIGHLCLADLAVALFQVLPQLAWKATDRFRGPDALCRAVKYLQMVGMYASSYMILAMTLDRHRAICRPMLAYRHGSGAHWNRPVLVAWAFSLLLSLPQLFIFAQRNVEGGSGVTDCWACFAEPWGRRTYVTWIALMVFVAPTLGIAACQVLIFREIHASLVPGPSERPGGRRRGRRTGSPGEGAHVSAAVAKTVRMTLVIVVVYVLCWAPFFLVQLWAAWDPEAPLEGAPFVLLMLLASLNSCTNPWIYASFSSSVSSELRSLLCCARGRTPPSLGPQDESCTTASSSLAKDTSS
Opiate κ (OP2, KOP), sequence (P41145 whole entry): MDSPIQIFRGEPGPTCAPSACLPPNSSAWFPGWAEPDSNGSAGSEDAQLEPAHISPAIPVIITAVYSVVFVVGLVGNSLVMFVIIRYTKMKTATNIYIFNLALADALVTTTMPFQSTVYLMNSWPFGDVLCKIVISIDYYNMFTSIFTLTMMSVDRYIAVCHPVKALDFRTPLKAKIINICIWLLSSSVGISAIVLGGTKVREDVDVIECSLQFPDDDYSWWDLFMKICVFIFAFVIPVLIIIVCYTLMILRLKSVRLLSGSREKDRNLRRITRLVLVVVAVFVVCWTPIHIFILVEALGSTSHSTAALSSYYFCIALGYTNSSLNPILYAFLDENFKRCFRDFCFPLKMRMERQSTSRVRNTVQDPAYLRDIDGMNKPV
Chemokine CCR4, sequence (P51679 whole entry): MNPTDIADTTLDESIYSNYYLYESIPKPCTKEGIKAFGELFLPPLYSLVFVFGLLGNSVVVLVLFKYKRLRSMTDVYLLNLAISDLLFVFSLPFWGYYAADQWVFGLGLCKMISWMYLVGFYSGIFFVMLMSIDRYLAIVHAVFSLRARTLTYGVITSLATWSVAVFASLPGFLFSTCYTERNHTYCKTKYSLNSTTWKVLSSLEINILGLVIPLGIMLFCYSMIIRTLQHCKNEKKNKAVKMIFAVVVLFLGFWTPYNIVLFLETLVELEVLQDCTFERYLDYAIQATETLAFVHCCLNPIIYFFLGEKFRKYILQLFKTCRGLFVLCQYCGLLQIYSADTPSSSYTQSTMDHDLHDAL
Cannabinoid CB1, sequence (P21554 whole entry): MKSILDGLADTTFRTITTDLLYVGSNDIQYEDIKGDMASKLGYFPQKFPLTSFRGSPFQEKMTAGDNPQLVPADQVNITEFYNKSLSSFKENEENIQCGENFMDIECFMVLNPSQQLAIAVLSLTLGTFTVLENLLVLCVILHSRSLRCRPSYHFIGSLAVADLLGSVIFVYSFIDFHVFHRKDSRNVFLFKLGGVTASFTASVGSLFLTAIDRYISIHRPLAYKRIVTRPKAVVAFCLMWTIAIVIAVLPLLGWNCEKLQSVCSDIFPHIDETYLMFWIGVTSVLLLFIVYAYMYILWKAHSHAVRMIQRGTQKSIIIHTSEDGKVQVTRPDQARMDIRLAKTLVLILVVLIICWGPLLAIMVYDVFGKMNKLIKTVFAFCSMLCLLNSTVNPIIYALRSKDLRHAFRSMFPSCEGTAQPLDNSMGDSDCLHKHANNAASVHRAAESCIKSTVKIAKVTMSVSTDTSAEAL

As to `C[C@H]1CC[C@@]2(OC1)O[C@H]1C[C@H]3[C@@H]4CC[C@@H]5C[C@@H](O)CC[C@]5(C)[C@H]4CC[C@]3(C)[C@H]1[C@@H]2C` [Sarsasapogenin, sarsasapogenin], in the assay with Acetyl CoA synthetase, the “Effect (%)” value is on record as “NS (NS = No significant response. Significance was taken as ≧30% stimulation or inhibition)”. Also, the “Progression of the motor neurone degeneration” value in the assay on pmn mice (0.03 μg/kg/day oral, lowest tested dosage) is recorded as “does not delay the progression of the motor neurone degeneration”. Besides, the “Amplitude of CMAP (motor function)” value in the assay with pmn mice (0.3 μg/kg/day oral from day 10 after birth, p<0.001) was “delayed the deterioration of motor function”. Further, in the assay on pmn mice (0.3 μg/kg/day oral, after symptoms manifest, p=0.006), the “Increase of survival (lifespan) of pmn mice compared to control” value is “up to 62%”. Besides, the “Rotarod and grid test performances” value in the assay with pmn mice (0.3 μg/kg/day oral, p=0.02 vs pmn control) is “significantly delayed the deterioration in the rotarod and grid test performances”.

As to `C[C@@H]1CC[C@@]2(OC1)O[C@H]1C[C@H]3[C@@H]4CC[C@@H]5C[C@@H](O)CC[C@]5(C)[C@H]4CC[C@]3(C)[C@H]1[C@@H]2C` [Smilagenin, smilagenin], the “Effect (%)” value (on Chemokine CCR4; at Vasopressin V2; at Melatonin MT1; in assay [1]; at Tachykinin NK2; in assay [2]) was “NS (NS = No significant response. Significance was taken as ≧30% stimulation or inhibition)” throughout. Further, the “Effect (%)” value is on record as “NS (NS = No significant response. Significance was taken as ≧30% stimulation or inhibition)” at Cannabinoid CB1; “NS (NS = No significant response. Significance was taken as ≧30% stimulation or inhibition)” at Opiate κ (OP2, KOP); “NS (NS = No significant response. Significance was taken as ≧30% stimulation or inhibition)” at Somatostatin sstl; “NS (NS = No significant response. Significance was taken as ≧30% stimulation or inhibition)” at Somatostatin sst3; “NS (NS = No significant response. Significance was taken as ≧30% stimulation or inhibition)” in [3]; “NS (NS = No significant response. Significance was taken as ≧30% stimulation or inhibition)” in the assay on Phorbol Ester. Further, the “Effect (%)” value in [4] and in assay [5] was “NS (NS = No significant response. Significance was taken as ≧30% stimulation or inhibition)” each time. The “GDNF concentration” value in the assay with GDNF was determined as 6.6 ± 0.7 pg/mL.
